Measurements reported in EPA's ToxValDB 9.5.
“And” between values parts separate entries of the source, which are not always exact repeats. Equal entries are not always repeated.

How the values were obtained:
Rattus norvegicus [1] = details: oral, M/F
Mus musculus [2] = details: uterotrophic; duration: 3 days; injection; intraperitoneal; Active
Rattus norvegicus [3] = details: oral
Rattus norvegicus [4] = details: oral, M/F; remark: listed apart in the source
Homo sapiens = details: clinical, inhalation
Mus musculus [5] = details: chronic, oral, M/F
Mus musculus [6] = details: oral
Rattus norvegicus [7] = details: subchronic, oral, drinking water, Fischer 344
Oryctolagus sp. [8] = details: subchronic; inhalation; M/F; New Zealand; reduced testes weight, seminiferous tubule degeneration and reduced hemoglobin
Rattus norvegicus [9] = details: repeat dose other; oral
Rattus norvegicus [10] = details: subchronic; duration: 90 days; oral; gavage; Kidney: Increased weight + Kidney: Nephrotoxicity + Liver: Increased weight
Canidae [11] = details: oral, M/F, Dog Other
Canidae [12] = details: oral, Dog Other
Mus musculus [13] = details: repeat dose other; oral
Canidae [14] = details: chronic; duration: 1 years; oral; Dog Other; Increased methaemoglobin and sulfhaemoglobin levels, platelet counts and hepatic pigmentation
Rattus norvegicus [15] = details: chronic; duration: 2 years; oral; Increased methaemoglobin and sulfhaemoglobin levels
Cavia porcellus = details: acute, oral, Guinea Pig
Mus musculus [16] = details: oral; remark: listed apart in the source
Oryctolagus sp. [17] = details: acute
Rattus norvegicus [18] = details: for LD50: acute
[19] = reproduction developmental, forelimb hair loss + Parturition mortality
[20] = subchronic, drinking water, nephropathy
[21] = subchronic, internal hemorrhage, mortality
[22] = chronic, diet, methemoglobin and sulfhemoglobin formation
[23] = short-term, duration: 11 days, diet, B6C3F1
[24] = subchronic, duration: 3 months, gavage, B6C3F1
[25] = short-term, duration: 9 days, oral, gavage, Fischer 344
[26] = subchronic, duration: 3 months, oral, diet, Wistar
[27] = subchronic, duration: 3 months, oral, gavage, Fischer 344

ClC1C(Cl)C(Cl)C(Cl)C(Cl)C1Cl (stereo not drawn) [beta-Hexachlorocyclohexane]
NOAEL (Rattus norvegicus [1]; short-term, duration: 2 weeks, diet, Wistar, neurological): 8 mg/kg-day
LOAEL (Rattus norvegicus [1]; subchronic, duration: 13 weeks, diet, Wistar, hepatic): 0.18 mg/kg-day
LEL (Mus musculus [2]): 100 mg/kg-day
LEL (Rattus norvegicus [3]; uterotrophic, duration: 3 days, Active): 3 mg/kg-day

[P] [Phosphorus]
LOAEL (Rattus norvegicus [4]; [19]): 0.075 mg/kg-day
NOAEL (Rattus norvegicus [4]; [19]): 0.015 mg/kg-day
LOAEL (Homo sapiens; duration: 5 minutes, M, respiratory): 187 mg/m3
NOAEL (Rattus norvegicus [1]; reproduction developmental, duration: 204 days, gavage, Sprague-Dawley, reproductive): 0.015 mg/kg-day

O=C1OC(=O)c2ccccc21 [Phthalic anhydride]
LOAEL (Mus musculus [5]; lung and kidney histopathology): 1560 mg/kg-day
LOAEL (Mus musculus [6]; chronic, duration: 104 weeks, diet, Kidney: Histopathology + Lung: Histopathology): 1560 mg/kg-day

CCOCCO [2-Ethoxyethanol]
NOEL (Rattus norvegicus [7]; F, Deaths + Clinical Observation: Emaciation Diarrhea Abnormal posture Tremors + Body Weight Changes: decrease + Water Consumption: decrease + …): 122 mg/kg-day
NOEL (Rattus norvegicus [7]; M/F, Deaths + Clinical Observation: Emaciation Diarrhea Abnormal posture Tremors + Body Weight Changes: decrease + Water Consumption: decrease + …): < 190 mg/kg-day
LOAEL (Oryctolagus sp. [8]): 1480 mg/m3
NOAEL (Oryctolagus sp. [8]): 380 mg/m3

CC(C)=O [Acetone]
LOAEL (Rattus norvegicus [9]): 50 mg/kg-day
NOAEL (Rattus norvegicus [9]): 10 mg/kg-day
NOEL (Rattus norvegicus [7]; M/F, Body Weight Changes: decrease + Water Consumption: decrease + Hematology: WBC increase, Lymph increase, Hgb decrease, RBC decrease, MCH …): 380 mg/kg-day
LOAEL (Rattus norvegicus [4]; [20]): 1700 mg/kg-day
NOAEL (Rattus norvegicus [4]; [20]): 900 mg/kg-day
LOAEL (Homo sapiens; duration: 4 hours, M/F, neurological): 563 mg/m3
NOEL (Rattus norvegicus [3]; Hershberger, duration: 10 days, gavage, Sprague-Dawley, inactive + Negative + Negative + neither + see comment): 1000 mg/kg-day
NOEL (Rattus norvegicus [10]): 100 mg/kg-day

O=C(O)CCCOc1ccc(Cl)cc1Cl [2,4-Dichlorophenoxybutyric acid]
LOAEL (Canidae [11]; [21]): 25 mg/kg-day
NOAEL (Canidae [11]; [21]): 8 mg/kg-day
NOAEL (Canidae [12]; subchronic, duration: 90 days, diet, Cardiovascular system: Hemorrhage + Whole body: Increased mortality): 8 mg/kg-day

CC(=O)[O-].CC(=O)[O-].[O]=[U+2]=[O] [Uranyl acetate]
LOAEL (Mus musculus [13]): 6.13 mg/kg-day
NOAEL (Mus musculus [13]): 3.07 mg/kg-day

O=CC(Cl)(Cl)Cl [Chloral]
LOAEL (Mus musculus [6]; subchronic, duration: 90 days, drinking water, Liver: Effects): 15.7 mg/kg-day

CNC(=O)ON=C(CSC)C(C)(C)C
NOAEL (Canidae [12]; short-term, duration: 8 days, Cholinesterase: Decreased cholinesterase activity): 0.025 mg/kg-day

Nc1ccc(-c2ccc(N)cc2)cc1 [C.I. Azoic Diazo Component 112]
LOAEL (Mus musculus [5]; Brain cell vacuolization + liver cell alterations in females): 2.7 mg/kg-day
LOAEL (Mus musculus [6]; chronic, duration: 33 months, drinking water, Brain: Cellular changes + Liver: Cellular changes): 2.7 mg/kg-day

O=C(NC(=O)c1c(F)cccc1F)Nc1ccc(Cl)cc1 [Diflubenzuron]
LEL (Canidae [11]; [22]): 10 mg/kg-day
NOEL (Canidae [11]; [22]): 2 mg/kg-day
NOAEL (Canidae [14]): 2 mg/kg-day
NOAEL (Rattus norvegicus [15]): 2 mg/kg-day

CCCCC(CC)CO (configuration not stated) [2-Ethyl-1-hexanol]
LD50 (Cavia porcellus): ≥ 1220 mg/kg and ≤ 2820 mg/kg
LD50 (Cavia porcellus; gavage): 600 mg/kg
NOAEL (Mus musculus [16]; developmental, duration: 18 days, diet, CD1): > 191 mg/kg-day
NOAEL (% diet) (Mus musculus [16]; repeat dose other, diet, B6C3F1): ≥ 0.44 and ≤ 0.66
NOAEL (Mus musculus [16]; reproduction developmental, duration: 18 days, diet, F, CD1): > 191 mg/kg-day
NOAEL (Mus musculus [16]; reproduction developmental, diet, F, CD1): > 191 mg/kg-day
LOAEL (Mus musculus [16]; [23]): ≥ 1000 mg/kg-day and ≤ 1500 mg/kg-day
LOAEL (% diet) (Mus musculus [16]; [23]): ≥ 0.66 and ≤ 1.32
NOAEL (% diet) (Mus musculus [16]; [23]): ≥ 0.44 and ≤ 0.66
NOAEL (Mus musculus [16]; short-term, duration: 11 days, diet, F, B6C3F1): 2650 mg/kg-day and 1000 mg/kg-day
NOAEL (Mus musculus [16]; short-term, duration: 11 days, gavage, B6C3F1): 100 mg/kg-day
LOAEL (Mus musculus [16]; [24]): ≥ 250 mg/kg-day and ≤ 500 mg/kg-day
NOAEL (Mus musculus [16]; [24]): ≥ 125 mg/kg-day and ≤ 250 mg/kg-day
NOAEL (Mus musculus [16]; subchronic, duration: 3 months, gavage, F, B6C3F1): 250 mg/kg-day
NOAEL (Mus musculus [16]; subchronic, duration: 3 months, gavage, M, B6C3F1): 125 mg/kg-day
LD50 (Oryctolagus sp. [17]; dermal): > 2600 mg/kg and 1980 mg/kg
LD50 (Oryctolagus sp. [17]; oral): 1180 mg/kg and 1470 mg/kg
LD50 (Rattus norvegicus [18]; dermal): > 3000 mg/kg
LD50 (Rattus norvegicus [18]; oral, gavage, albino): 7000 mg/kg
NOAEL (Rattus norvegicus [18]; developmental, dermal, occlusive, Fischer 344): > 2520 mg/kg-day
NOAEL (Rattus norvegicus [18]; developmental, duration: 10 days, dermal, occlusive, Fischer 344): > 2520 mg/kg-day
NOAEL (Rattus norvegicus [18]; developmental, oral, gavage, Wistar): 650 mg/kg-day
NOAEL (Rattus norvegicus [18]; repeat dose other, inhalation, Wistar): 0.648 mg/L and 0.32 mg/L
NOAEL (% diet) (Rattus norvegicus [18]; repeat dose other, oral, diet, Fischer 344): 0.46
LOAEL (Rattus norvegicus [18]; repeat dose other, oral, gavage, Fischer 344): 100 mg/kg-day
NOAEL (Rattus norvegicus [18]; reproduction developmental, duration: 10 days, oral, gavage, F, Wistar): 130 mg/kg-day
NOAEL (Rattus norvegicus [18]; reproduction developmental, oral, gavage, F, Wistar): 130 mg/kg-day
NOAEL (Rattus norvegicus [18]; short-term, duration: 9 days, oral, drinking water, Fischer 344): 636 ppm
LOAEL (Rattus norvegicus [18]; [25]): 100 mg/kg-day
NOAEL (Rattus norvegicus [18]; [25]): 83 mg/kg-day
NOAEL (Rattus norvegicus [18]; short-term, duration: 14 days, inhalation, Wistar): 0.32 mg/L
LOAEL (Rattus norvegicus [18]; short-term, duration: 21 days, oral, gavage, Fischer 344): 100 mg/kg-day
LOAEL (% diet) (Rattus norvegicus [18]; [26]): 0.25
NOAEL (% diet) (Rattus norvegicus [18]; [26]): 0.05
LOAEL (Rattus norvegicus [18]; [27]): 250 mg/kg-day
NOAEL (Rattus norvegicus [18]; [27]): 125 mg/kg-day and ≤ 250 mg/kg-day
NOAEL (Rattus norvegicus [18]; subchronic, duration: 13 weeks, oral, gavage): 250 mg/kg-day
